Assay results published in patent publication US20240100013A1, “SOTAGLIFLOZIN FOR IMPROVING LEFT ATRIAL FUNCTION” (CHARITÉ-UNIVERSITÄTSMEDIZIN BERLIN, priority 2021, published 2024).

Experiments:
[1] = test system: LA cardiomyocytes; assay: ROS production (H2-DCF) in LA cardiomyocytes; type: cell-based, rat; conditions: HFpEF
Experimental: ROS production. LA cardiomyocytes were starved of glucose for 1 h at 37° C., loaded with H2-DCF and transferred to an LSM 800 laser scanning microscope. Two-dimensional images (excitation: 488 nm, emission: […]) were acquired for a duration of 30 s (interval: 2 s, resolution: 256×256 px, pixel size: 0.624 μm, pixel time: 8.24 μs, laser intensity: 0.6%). Cells were exposed to 30 mM glucose and another set of images acquired for a duration of 90 s. Image sequences acquired between 0-30 s (glucose starved) and 90-120 s (glucose saturated) were individually assessed. H2-DCF signal intensity (F) of the initial image was defined as F0, reactive oxygen species (ROS) accumulation calculated as ΔF=F−F0 per image, averaged per image sequence and reported as the respective rate ΔF/(F0*t).

[2] = test system: LA cardiomyocytes; assay: Caffeine-induced CaT: SR Ca2+ load, tau of decay and NCX forward-mode activity; type: cell-based, rat
Excerpt: Solutions and chemicals. Chemicals were obtained from Sigma-Aldrich (St. Louis, MO, USA) unless noted otherwise. The dual SGLT1/2 inhibitor sotagliflozin was provided by Lexicon Pharmaceuticals (The Woodlands, TX, USA). Fluorescent dyes Fura-2 AM, Rhod-2 AM, MitoTracker red, MitoTracker green, TMRE and H2-DCF were obtained from Thermo Fisher Scientific (Waltham, MA, USA). Tyrode solution contained (in mM): 130 NaCL, 4 KCl, 2 CaCl, 1 MgCl2, 10 Glucose, 10 HEPES; pH adjusted to 7.4 with NaOH. LA cardiomyocytes were plated on laminin-coated glass coverslips. 20 mM caffeine was added to Tyrode solution to induce sarcoplasmic reticulum (SR) Ca^2+ release and obtain a measure of SR Ca^2+ content. For baseline recordings of Ca^2+ transient (CaT), sarcomere shortening and arrhythmic events (FIGS. 1C-F, 2A-E, 3A-F), Tyrode solution containing 3 mM Ca^2+ was used. For glucose starvation (FIGS. 2H-J, 5A-D), glucose of Tyrode solution was replaced with 30 mM mannitol. For sub-sequent glucose reintroduction, mannitol was replaced with 30 mM glucose (“high glucose condition”).
(§1) Ca^2+ measurements and sarcomere shortening. Radiometric Ca^2+ measurements (excitation: 340 nm and 385 nm, emission: 510±10 nm; [Ca^2+] expressed as the ratio R=F340/F380) were performed either with a CytoCypher MultiCell System (CytoCypher BV, Netherlands; FIGS. 1C-F, 2D-G, 4A-F) or an Axiovert 200 microscope (Zeiss, Oberkochen, Germany) fluorescence imaging assembly (FIGS. 2A-C, 2H-J, 3A-E, 6E-I). LA cardiomyocytes were loaded with Fura-2 for 30 min at room temperature, washed twice with Tyrode solution and transferred to the microscope. Experiments were conducted at 37° C. and CaT were recorded at steady state (following electric stimulation).
(§2) CaT and sarcomere shortening of LA and LV cardiomyocytes were recorded for 10 s at 3 Hz stimulation. See FIGS. 2D-G, 4A-F. Electric stimulation was turned off and spontaneous SR Ca^2+ release events (See Voigt N, Heijman J, Wang Q, Chiang D Y, Li N, Karck M, Wehrens X H T, Nattel S, Dobrev D: “Cellular and molecular mechanisms of atrial arrhythmogenesis in patients with paroxysmal atrial fibrillation,” Circulation 2014, 129(2):145-156) (SCaEs) immediately recorded for a duration of 10 s (FIG. 1C-F). In a sub-set of LA cells, CaT were recorded for 10 s at 1 Hz stimulation. Electric stimulation was turned off, the cells immediately exposed to 20 mM caffeine and the sub-sequent caffeine-induced CaT recorded for 10 s (FIG. 2A-C, 3A-E). Sodium-calcium exchanger (NCX) activity was calculated as previously described. See Hohendanner F, Walther S, Maxwell J T, Kettlewell S, Awad S, Smith G L, Lonchyna V A, Blatter L A: “Inositol-1,4,5-trisphosphate induced Ca^2+ release and excitation-contraction coupling in atrial myocytes from normal and failing hearts,” J Physiol 2015, 593(6):1459-1477.

[3] = setting of diabetes; cited from earlier work
[4] = test system: LA cardiomyocytes; assay: Ca2+ transient (CaT) measurements (Fura-2) in LA cardiomyocytes, incl. glucose starvation/reintroduction and glycolytic inhibition; type: cell-based, rat
Excerpt: Cardiomyocyte isolation. LA and LV cardiomyocytes were isolated using enzymatic digestion as previously described in detail. See Bode D, Guthof T, Pieske B M, Heinzel F R, Hohendanner F: “Isolation of Atrial Cardiomyocytes from a Rat Model of Metabolic Syndrome-related Heart Failure with Preserved Ejection Fraction,” J Vis Exp 2018(137).
Solutions and chemicals. Chemicals were obtained from Sigma-Aldrich (St. Louis, MO, USA) unless noted otherwise. The dual SGLT1/2 inhibitor sotagliflozin was provided by Lexicon Pharmaceuticals (The Woodlands, TX, USA). Fluorescent dyes Fura-2 AM, Rhod-2 AM, MitoTracker red, MitoTracker green, TMRE and H2-DCF were obtained from Thermo Fisher Scientific (Waltham, MA, USA). Tyrode solution contained (in mM): 130 NaCL, 4 KCl, 2 CaCl, 1 MgCl2, 10 Glucose, 10 HEPES; pH adjusted to 7.4 with NaOH. LA cardiomyocytes were plated on laminin-coated glass coverslips. 20 mM caffeine was added to Tyrode solution to induce sarcoplasmic reticulum (SR) Ca^2+ release and obtain a measure of SR Ca^2+ content. […] For glucose starvation (FIGS. 2H-J, 5A-D), glucose of Tyrode solution was replaced with 30 mM mannitol. For sub-sequent glucose reintroduction, mannitol was replaced with 30 mM glucose (“high glucose condition”).
as §1, §2
Cells were treated with 2-deoxyglucose to inhibit glycolysis for a duration of 3 min, while maintaining steady stimulation at 1 Hz and CaT were recorded for another 10 s. A sub-set of cells was starved of glucose for 1 h at 37° C. CaT were recorded for 10 s at 1 Hz stimulation. See FIGS. 2H-J. Cells were exposed to glucose and constant electric pacing at 1 Hz was maintained. After 1 min, CaT transients were recorded for 10 s at 1 Hz stimulation.

[5] = HFpEF, 2-deoxyglucose, 3 min, 1 Hz
[6] = HFpEF, 3 Hz, 5 mM extracellular [Ca2+]
[7] = baseline, 1 Hz, 2 mM Ca2+, chronic treatment

In the case of `CCOc1ccc(Cc2cc([C@@H]3O[C@H](SC)[C@@H](O)[C@H](O)[C@H]3O)ccc2Cl)cc1` [sotagliflozin, (2S,3R,4R,5S,6R)-2-(4-chloro-3-(4-ethoxybenzyl)phenyl)-6-(methylthio)tetrahydro-2H-pyran-3,4,5-triol], the “decrease of ROS production after reintroduction of glucose” value ([1]; 30 mM glucose) was “this effect could not be observed”, the ROS production ([1]; after 1 h glucose starvation) was “significantly reduced” and the “SR Ca2+ load” value ([2]; HFpEF, 20 mM caffeine) was “no effect”. For the same molecule, the “tau of caffeine-induced CaT” value ([2]; HFpEF, 20 mM caffeine) was “unchanged”, the “tau of decay (paced CaT)” value ([2]; HFpEF, 1 Hz electric stimulation) was “significantly prolonged” and the “increase of contribution of NCX forward-mode activity on cytosolic Ca2+ removal” value ([2]; HFpEF, Sota vs vehicle) was −50%. The “contribution of NCX forward-mode activity on cytosolic Ca2+ removal” value ([2]; HFpEF, vehicle 7.6±0.7, n=14 and 21 cells) was 11.6±0.7%, the “increased forward mode NCX activity” value ([2]; after chronic treatment, HFpEF vs WT) was “only occurs in HFpEF, but not WT” and the “effects on blood pressure and body weight” value [3] was “beneficial effects”. For the same molecule, the “increased CaT amplitude gain upon glycolytic inhibition” value [4, 5] was “prevented”, the “increased influx of diastolic Ca2+ upon glycolytic inhibition” value [4, 5] was “prevented” and the CaT amplitudes [4, 6] was “unchanged”. For the same molecule, the “diastolic [Ca2+]” value [4, 6] was “significant reduction”, the “glucose-mediated influx of diastolic Ca2+” value ([4]; HFpEF, 1 h glucose starvation, then 30 mM glucose) was “prevented” and the CaT amplitude [4, 7] was “did not alter”. For the same molecule, the “diastolic [Ca2+]” value [4, 7] was “did not alter”.
